Data: patent US20230381139A1, “METHODS OF TREATING AND/OR PREVENTING ALZHEIMER’S DISEASE WITH R-CARVEDILOL” (priority 2020, published 2023)

Legend:
[1] = tested on: 5×FAD+/− hippocampal CA1 neurons; assay: In vivo two-photon Ca2+ imaging of CA1 neurons (neuronal hyperactivity) in 5×FAD+/− mice; parameters: species or system mouse
Method: (§1) Adult genetically engineered mice, 5×FAD^+/− (Oakley et al., 2006), RyR2-E4872Q^+/− (EQ^+/−) (Chen et al., 2014), 5×FAD^+/−/RyR2-E4872Q^+/− (5×FAD^+/−/EQ^+/−), and wildtype (WT) littermates of both sexes were used. R-carvedilol (R-CV) (at doses of 0.8, 1.6 or 3.2 mg/kg/day), racemic carvedilol (3.2 mg/kg/day), and vehicle control (DMSO) were delivered to 5×FAD^+/− mice in drinking water for one month, starting at different ages before (2-3 months old) or after (3-4 months old) the occurrence of AD pathologies (Oakley et al., 2006). To assess the effects of genetically and pharmacologically limiting RyR2 open time on the prevention and rescue of AD deficits in different stages (early, moderate, and late) of AD progression, animals at different ages (from 2-15 months) were used. As reported (Oakley et al., 2006), there was an age-dependence of AD progression in the 5×FAD^+/− mice. No sex-dependent differences in AD progression in these mice was observed. For 2-photon Ca^2+ imaging experiments, 5×FAD, RyR2 WT, and RyR2 mutant mice were cross-bred with the heterozygous Thy1-GCaMP6f transgenic mice (Chen et al., 2012; Chen et al., 2013) (GP5.17, JAX 025393) to express the GCaMP6f Ca^2+ sensing probe (driven by the Thy1 promotor) in hippocampal neurons in each of the genotypes used.
To determine whether limiting RyR2 open time can suppress AD-associated neuronal hyperactivity in vivo, double heterozygous 5×FAD^+/−/E4872Q^+/− mice were crossed with the heterozygous Thy-1 GCaMP6f^+/− transgenic mice (GP5.17, JAX 025393) to introduce the GCaMP6f^+/− transgene into each of the four genotypes (driven by the Thy1 promotor). In vivo two-photon imaging of GCaMP6f-expressing CA1 pyramidal neurons in each of the four genotypes to monitor spontaneous Ca^2+ transients was performed.
Neuronal hyperactivity has been reported in anesthetized AD model mice in vivo using two-photon Ca^2 + imaging (Busche et al., 2008; Busche et al., 2012; Lerdkrai et al., 2018; Busche et al., 2019). To facilitate comparison, the same approach described originally by Busche et al. and used by others in the field (Busche et al., 2012; Busche et al., 2008; Delekate et al., 2014; Eichhoff and Garaschuk, 2011; Kim et al., 2016; Takano et al., 2007; Zott et al., 2019) was employed. Craniotomy was performed according to the protocol reported previously (Busche, 2018; Busche et al., 2012; Busche et al., 2008) with some modifications. […] The body temperature was monitored and controlled at 36.5-37.5° C. during the entire surgery and imaging procedure. […] Besides the core body temperature, the respiratory and pulse rate were continuously monitored (MouseOx plus. STARR Life Science Corp.). […]

5×FAD+/− mice = assay: Learning and memory tests (Morris water maze, novel object recognition) in 5×FAD+/− mice; assay type: in vivo, mouse; details: for learning and memory impairments (MWM, NOR): 4-6 months old 5×FAD mice
Method: as §1
The learning and memory of mice with all genotypes were evaluated using the Morris water maze (MWM) test, the Barnes maze (BM) test, and/or the novel object recognition (NOR) test. Experiments were carried out blindly. For the MWM test, mice at different ages were trained to localize a hidden escape platform (10×10 cm) in a circular pool (116.84 cm in diameter, 50 cm in depth) (San Diego Instruments, CA) via distal visual cue. The platform was submerged 1-2 cm beneath the surface in water (22-24°C.), which was rendered opaque by addition of milk powder. The localization of the pool in relation to visual cues was maintained constantly during the entire task. The cues were distinct in color and shape. Digital division of the tracking area (pool) into four quadrants was performed by the SMART video tracking system, Smart 3.0 (Panlab Harvard Apparatus; Barcelona Spain). The escape platform was placed in the centre of the south-west quadrant for the entirety of the learning phase (4 training days) and digitally defined as target. Spatial training consisted of 4 days with 5 trials per mouse per day. Mice were released with their heads facing the pool wall at one of four entry locations (north, east, south and west) in a non-repetitive random order. Swimming was automatically video-tracked until the subject found the escape platform and remained on it (≥5 sec), or until a maximum of 60 seconds. […] In between trials (inter-trial interval ≥10 min), mice were housed in heated cages to avoid performance deficits due to exhaustion or hypothermia. The latency and swimming speed to reach the escape platform were recorded for comparison. After the learning phase, memory retention was evaluated by one probe trial 24 hours after the last training session. The escape platform was removed before mice were released from the north entry point into the pool. Their swimming was video-tracked for 60 seconds. The area at the location of the removed hidden platform was defined as the target and the south-west quadrant the target quadrant. The percentage of time mice spent in the target quadrant (including the target) were measured for comparison.
For the NOR test, mice were habituated for 10 min per mouse in an equally illuminated, odor-free, white, plastic box (40×40×50 cm^3) embedded with fresh aspen shavings and shreds. In between each mouse trial the box was wiped with ethanol to avoid odor-induced stress. 24 hours after habituation, two identical objects ware placed at equal distance to each other and the corners of the box. Each mouse was placed into the center, and allowed to move freely for 10 min. Mice were video recorded during this familiarizing phase. […]

[2] = 3.2 mg/kg/day for one month, started at 2-3 or 3-4 months of age (both ages), vs vehicle pre-treated 5×FAD+/− mice

Question: Which “fraction of hyperactive neurons” value [1, 2] does the source give for `COc1ccccc1OCCNC[C@@H](O)COc1cccc2[nH]c3ccccc3c12` [R-carvedilol, R-(+)-carvedilol] here?
Answer: The value was “significantly lower”.

Question: What about the “mean frequency of spontaneous Ca2+ transients” value [1, 2] of the same molecule?
Answer: Its value is “significantly lower”.

Question: And the “overall spontaneous neuronal activity (cumulative probability analysis)” value [1, 2]?
Answer: The value was “significantly lower”.

Question: And the “neuronal hyperactivity of 5×FAD+/− hippocampal CA1 neurons in vivo” value ([1]; 3.2 mg/kg/day in drinking water for one month, started at 2-3 months (before AD pathology) or 3-4 months (after) of age, vs DMSO vehicle)?
Answer: Its value is “prevented and rescued”.

Question: What about the “learning and memory impairments (MWM, NOR)” value (5×FAD+/− mice; 1.6 mg/kg/day for one month, vs DMSO) of the same molecule?
Answer: Its value is “rescued”.

Question: And the “memory loss / learning and memory deficits (MWM, NOR)” value (5×FAD+/− mice; 3.2 mg/kg/day for one month started at 2-3 months of age (before AD symptoms), tested at 3-4 months, vs DMSO)?
Answer: The value was “prevented”.

Question: And the “memory loss (MWM, NOR)” value (5×FAD+/− mice; 3.2 mg/kg/day for one month started at 3-4 months of age (after AD symptom), tested at 4-5 months, vs DMSO)?
Answer: Its value is “rescued”.

Question: What about the “learning and memory impairments (MWM, NOR)” value (5×FAD+/− mice; 3.2 mg/kg/day for one month, vs DMSO) of the same molecule?
Answer: The value was “rescued”.

Question: And the “beneficial effect on learning and memory, dependence on dose” value (5×FAD+/− mice; 0.8, 1.6, 3.2 mg/kg/day for one month, 5×FAD mice)?
Answer: Its value is “dose-dependent”.

Question: What about the “memory deficits (MWM, NOR)” value (5×FAD+/− mice; 6-7 and 10-12 months old 5×FAD+/− mice (late stages of AD), 3.2 mg/kg/day for 1 month, vs DMSO) of the same molecule?
Answer: The value was “rescued”.
